Values of other authors in patent publication US20250367228A1, “FORMULATIONS FOR BOOSTING NAD+ USING MULTIPLE BIOLOGICAL PATHWAYS CONCURRENTLY TO OVERCOME ENZYMATIC DEGRADATION AND IMPROVE DOWNSTREAM BENEFITS” (PROHEALTH, priority 2023, published 2025).

Tests used:
[1] = test system: NAD+ blood concentrations; details: 1000 mg/day of NR, elderly subjects
[2] = target: T1, CD38 (Homo sapiens, UniProt P28907)
T1 sequence (P28907 1-300): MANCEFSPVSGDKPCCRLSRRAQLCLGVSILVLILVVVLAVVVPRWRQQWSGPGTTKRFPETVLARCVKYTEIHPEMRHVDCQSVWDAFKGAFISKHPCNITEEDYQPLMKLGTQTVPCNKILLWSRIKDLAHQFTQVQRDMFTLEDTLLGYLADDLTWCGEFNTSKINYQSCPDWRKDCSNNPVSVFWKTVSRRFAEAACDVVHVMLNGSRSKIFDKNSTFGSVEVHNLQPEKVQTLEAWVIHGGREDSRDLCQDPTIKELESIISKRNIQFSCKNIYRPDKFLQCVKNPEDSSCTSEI

Structure (SMILES) | increase of NAD+ blood concentrations [1] | inhibition of CD38 [2]
NC(=O)c1ccc[n+]([C@@H]2O[C@H](CO)[C@@H](O)[C@H]2O)c1 [NR, Nicotinamide riboside] | two-fold | 
O=c1cc(-c2ccc(O)cc2)oc2cc(O)cc(O)c12 [apigenin] |  | inhibited
O=c1c(O)c(-c2ccc(O)c(O)c2)oc2cc(O)cc(O)c12 [quercetin] |  | inhibited
